Like-named read-outs stand apart in the source and are kept apart here.
Experiments:
[1] = in vitro; settings: human
[2] = test system: mutant HIV-1 I84V/L90M; experiment: Resistance Evaluation, I84V/L90M fold change; type: cell-based
[3] = test system: HIV-1 48V54V82A; experiment: microbe, parasite or virus in culture; type: cell-based
[4] = test system: HIV-1 30N82I88D; experiment: microbe, parasite or virus in culture; type: cell-based
[5] = test system: HIV-1 48V82A90M; experiment: microbe, parasite or virus in culture; type: cell-based
[6] = test system: HIV-1 48V54V82S; experiment: microbe, parasite or virus in culture; type: cell-based
[7] = target: 84V90M HIV protease (Human immunodeficiency virus type 1 group M subtype B, UniProt P04585, I572V/L578M); experiment: biochemical; parameters: species or system HIV-1
[8] = test system: HIV-1 46I50V; experiment: microbe, parasite or virus in culture; type: cell-based
[9] = test system: HIV-1 84V90M; experiment: microbe, parasite or virus in culture; type: cell-based
[10] = target: T1, recombinant HIV-1 protease (Human immunodeficiency virus type 1 group M subtype B, UniProt P04585); experiment: biochemical
T1 construct: Enzyme: recombinant HIV-1 protease expressed in E.Coli; purchased Bachem California, Inc. H-9040; host or cells: E. coli

[11] = target: T2, WT HIV protease (Human immunodeficiency virus type 1 group M subtype B, UniProt P04585); experiment: biochemical; parameters: species or system HIV-1
T2 construct: synthetic hexapeptide substrate cleavage by HIV-1 protease

[12] = test system: WT HIV-1; experiment: microbe, parasite or virus in culture; type: cell-based
[13] = test system: wild-type HIV-1 strain IIIB; experiment: microbe, parasite or virus in culture; type: cell-based; settings: Human immunodeficiency virus 1, IIIB
[14] = test system: recombinant HIV-1 strains with resistance mutations in the protease gene; experiment: Cross-Resistance Profile Assay, whole panel; type: cell-based; settings: {}
[15] = Human immunodeficiency virus 1, read-out: Cell-based assay (MT-4) EC50/nM 48V54V82A
[16] = Human immunodeficiency virus 1, read-out: Cell-based assay (MT-4) EC50/nM 30N82I88D
[17] = Human immunodeficiency virus 1, read-out: Cell-based assay (MT-4) EC50/nM 48V82A90M
[18] = Human immunodeficiency virus 1, read-out: Cell-based assay (MT-4) EC50/nM 48V54V82S
[19] = Human immunodeficiency virus 1, read-out: Cell-based assay (MT-4) EC50/nM 46I50V
[20] = Human immunodeficiency virus 1, read-out: Cell-based assay (MT-4) EC50/nM 84V90M
[21] = MT-4, 48V54V82A, read-out: Cell-based assay (MT-4) EC50/nM 48V54V82A
[22] = MT-4, 30N82I88D, read-out: Cell-based assay (MT-4) EC50/nM 30N82I88D
[23] = Enzymatic assay, 84V90M, read-out: 84V90M IC50/nM
[24] = MT-4, 46I50V, read-out: Cell-based assay (MT-4) EC50/nM 46I50V
[25] = MT-4, 84V90M, read-out: Cell-based assay (MT-4) EC50/nM 84V90M
[26] = read-out: Cell-based assay (MT-4) EC50/nM WT
[27] = MT2, 120 h, read-out: Anti-HIV-1 Cell Culture Activity EC50
[28] = MT-4, 48V82A90M, read-out: Cell-based assay (MT-4) EC50/nM 48V82A90M
[29] = MT-4, 48V54V82S, read-out: Cell-based assay (MT-4) EC50/nM 48V54V82S
[30] = EC50 of mutant I84V/L90M relative to wild type, class symbols
[31] = Human immunodeficiency virus 1, read-out: Cell-based assay (MT-4) EC50/nM WT
[32] = Human immunodeficiency virus 1, MT-4, 84V90M, read-out: Cell-based assay (MT-4) EC50/nM 84V90M

## CC(C)CN(CC(O)C(Cc1ccc(OCP(=O)(OCc2ccccc2)OCc2ccccc2)cc1)NC(=O)OC1COC2OCCC12)S(=O)(=O)c1ccc(OC(F)(F)F)cc1 (centres unmarked)
[1]
  CC50: 5000 to 50000 nM
[2]; mutant I84V/L90M vs wild type
  I84V/L90M fold change: + (>3 to ≦10)

## CCOP(=O)(COc1ccc(CC2C(O)C(O)C(Cc3ccccc3)N(Cc3ccccc3)C(=O)N2Cc2ccccc2)cc1)OCC (centres unmarked)
[3]; [15]
  EC50: 1440 nM
[4]; [16]
  EC50: 293 nM
[5]; [17]
  EC50: 3290 nM
[6]; [18]
  EC50: 1900 nM
[7]
  IC50: 48 nM
[8]; [19]
  EC50: 589 nM
[9]; [20]
  EC50: 2460 nM

## Nc1n[nH]c2ccc(CN3C(=O)N(CCCCO)C(Cc4ccccc4)C(O)C(O)C3Cc3ccccc3)cc12 (centres unmarked) [CH2OH]
[3]; [21]
  EC50: 413 nM
[10]; read-out: Ki
  Ki: 0.017 nM
[11]; read-out: WT IC50/nM
  IC50: 2.8 nM
[4]; [22]
  EC50: 486 nM
[7]; [23]
  IC50: 31 nM
[8]; [24]
  EC50: 524 nM
[9]; [25]
  EC50: 1110 nM
[12]; [26]
  EC50: 253 nM

## CCOP(=O)(COc1ccc(C[C@H](NC(=O)O[C@H]2CO[C@H]3OCC[C@H]32)[C@H](O)CN(CC(C)C)S(=O)(=O)c2ccc(OC)cc2)cc1)OCC [Compound 13]
[1]
  CC50: 50000 nM
[13]; [27]
  EC50: 3 nM

## CCCCN1C(=O)N(Cc2ccc3[nH]nc(N)c3c2)C(Cc2ccccc2)C(O)C(O)C1Cc1ccccc1 (centres unmarked) [DMP-851]
[3]; [21]
  EC50: 33 nM
[4]; [22]
  EC50: 69 nM
[5]; [28]
  EC50: 22 nM
[6]; [29]
  EC50: 30 nM
[8]; [24]
  EC50: 17 nM
[12]; [26]
  EC50: 54 nM

## COc1ccc(S(=O)(=O)N(CC(C)C)C[C@@H](O)[C@H](Cc2ccccc2)NC(=O)O[C@H]2CO[C@H]3OCC[C@H]32)cc1 [Example 94-003, reference compound]
[1]
  CC50: 5000 to 50000 nM
[13]
  EC50: < 50 nM
[13]; [27]
  EC50: 1.4 ± 0.3 nM
[14]
  Total No. of Resistant Viruses: 3

## CCOP(=O)(COc1ccc(CC2C(O)C(O)C(Cc3ccccc3)N(Cc3cccc(N)c3)C(=O)N2Cc2cccc(N)c2)cc1)OCC (centres unmarked) [H, Ph-mNH2, OCH2PO3Et2]
[3]; [15]
  EC50: 168 nM
[4]; [16]
  EC50: 16 nM
[5]; [17]
  EC50: 74 nM
[6]; [18]
  EC50: 146 nM
[8]; [19]
  EC50: 46 nM
[9]; [20]
  EC50: 328 nM

## CCOP(=O)(COc1ccc(CC2C(O)C(O)C(Cc3ccc(OC)cc3)N(Cc3cccc(N)c3)C(=O)N2Cc2cccc(N)c2)cc1)OCC (centres unmarked) [OCH3, Ph-mNH2, OCH2PO3Et2]
[3]; [15]
  EC50: 202 nM
[4]; [16]
  EC50: 18 nM
[5]; [17]
  EC50: 102 nM
[6]; [18]
  EC50: 117 nM
[7]
  IC50: 56 nM
[8]; [19]
  EC50: 36 nM
[9]; [20]
  EC50: 535 nM

## CCOP(=O)(COc1ccc(CC2C(O)C(O)C(Cc3ccc(OC)cc3)N(Cc3ccc(O)cc3)C(=O)N2Cc2ccc(O)cc2)cc1)OCC (centres unmarked) [OCH3, Ph-pOH, OCH2PO3Et2]
[3]; [21]
  EC50: 67 nM
[4]; [22]
  EC50: 23 nM
[5]; [28]
  EC50: 48 nM
[6]; [29]
  EC50: 106 nM
[8]; [24]
  EC50: 68 nM
[12]; [26]
  EC50: 29 nM

## CCOP(=O)(COc1ccc(CC2C(O)C(O)C(Cc3ccc(OC)cc3)N(Cc3cccnc3)C(=O)N2Cc2cccnc2)cc1)OCC (centres unmarked) [OCH3, m-pyridine, OCH2PO3Et2]
[3]; [21]
  EC50: 1020 nM
[4]; [22]
  EC50: 106 nM
[5]; [28]
  EC50: 480 nM
[6]; [29]
  EC50: 970 nM
[8]; [24]
  EC50: 352 nM

## CCOP(=O)(COc1ccc(CC(NC(=O)OC2COC3OCCC23)C(O)CN(CC(C)C)S(=O)(=O)c2ccc(OC)cc2)cc1)OCc1ccccc1 (centres unmarked) [drawing 608 R1=OEt R2=OBn]
[1]
  CC50: < 5000 nM
[13]
  EC50: < 50 nM

## COc1ccc(S(=O)(=O)N(CC(C)C)CC(O)C(Cc2ccc(OCP(=O)(O)O)cc2)NC(=O)OC2COC3OCCC23)cc1 (centres unmarked) [drawing 608 R1=OH R2=OH]
[1]
  CC50: > 50000 nM
[13]
  EC50: 500 to 5000 nM
[2]; [30]
  I84V/L90M fold change: − (≦3)

## CCOC(=O)C(C)NP(=O)(COc1ccc(CC(NC(=O)OC2COC3OCCC23)C(O)CN(CC(C)C)S(=O)(=O)c2ccc(OC)cc2)cc1)NC(C)C(=O)OCC (centres unmarked) [drawing 612 R1=Ala-Et R2=Ala-Et]
[1]
  CC50: > 50000 nM
[13]
  EC50: 50 to 500 nM
[2]; [30]
  I84V/L90M fold change: − (≦3)

## Nc1n[nH]c2ccc(CN3C(=O)N(Cc4cccc(OCP(=O)(O)O)c4)C(Cc4ccccc4)C(O)C(O)C3Cc3ccccc3)cc12 (centres unmarked) [m-OCH2PO3H2]
[10]; Ki (nM)
  Ki: 0.254 nM
[11]
  IC50: 8.3 nM
[7]
  IC50: 33 nM
[12]; [31]
  EC50: > 12000 nM

## Nc1n[nH]c2ccc(CN3C(=O)N(Cc4cccc(OCP(=O)(O)Oc5ccccc5)c4)C(Cc4ccccc4)C(O)C(O)C3Cc3ccccc3)cc12 (centres unmarked) [m-OCH2PO3HPh]
[10]; Ki (nM), Enzymatic assay
  Ki: 0.644 nM
[11]
  IC50: 17 nM
[7]
  IC50: 65 nM
[9]; [32]
  EC50: > 6000 nM
[12]; [31]
  EC50: 1740 nM

## Nc1n[nH]c2ccc(CN3C(=O)N(Cc4cccc(OCP(=O)(Oc5ccccc5)Oc5ccccc5)c4)C(Cc4ccccc4)C(O)C(O)C3Cc3ccccc3)cc12 (centres unmarked) [m-OCH2PO3Ph2]
[3]; Human immunodeficiency virus 1, MT-4, 48V54V82A, read-out: Cell-based assay (MT-4) EC50/nM 48V54V82A
  EC50: 2180 nM
[10]; Ki (nM), Enzymatic assay
  Ki: 0.543 nM
[11]
  IC50: 10 nM
[4]; Human immunodeficiency virus 1, MT-4, 30N82I88D, read-out: Cell-based assay (MT-4) EC50/nM 30N82I88D
  EC50: 1540 nM
[7]
  IC50: 42 nM
[8]; Human immunodeficiency virus 1, MT-4, 46I50V, read-out: Cell-based assay (MT-4) EC50/nM 46I50V
  EC50: 3380 nM
[9]; [32]
  EC50: > 6000 nM
[12]; [31]
  EC50: 1350 nM

## CCCCOC(=O)C(C)NP(=O)(COc1cccc(CN2C(=O)N(Cc3ccc4[nH]nc(N)c4c3)C(Cc3ccccc3)C(O)C(O)C2Cc2ccccc2)c1)NC(C)C(=O)OCCCC (centres unmarked) [m-bis-Ala-Bu]
[3]; [21]
  EC50: 1850 nM
[10]; read-out: Ki
  Ki: 1.28 nM
[11]; read-out: WT IC50/nM
  IC50: 18 nM
[4]; [22]
  EC50: 2360 nM
[7]; [23]
  IC50: 103 nM
[8]; [24]
  EC50: 1540 nM
[9]; [25]
  EC50: > 6000 nM
[12]; [26]
  EC50: 1080 nM

## CCOC(=O)C(C)NP(=O)(COc1cccc(CN2C(=O)N(Cc3ccc4[nH]nc(N)c4c3)C(Cc3ccccc3)C(O)C(O)C2Cc2ccccc2)c1)NC(C)C(=O)OCC (centres unmarked) [m-bis-Ala-Et]
[10]; read-out: Ki
  Ki: 1.99 nM
[11]; read-out: WT IC50/nM
  IC50: 31 nM
[4]; [22]
  EC50: 1850 nM
[7]; [23]
  IC50: 202 nM
[9]; [25]
  EC50: > 6000 nM
[12]; [26]
  EC50: 5620 nM

## Nc1n[nH]c2ccc(CN3C(=O)N(Cc4ccc(OCP(=O)(O)O)cc4)C(Cc4ccccc4)C(O)C(O)C3Cc3ccccc3)cc12 (centres unmarked) [p-OCH2PO3H2]
[10]; Ki (nM)
  Ki: > 5 nM
[11]
  IC50: 551 nM
[7]
  IC50: 1660 nM
[12]; [31]
  EC50: > 12000 nM

## Nc1n[nH]c2ccc(CN3C(=O)N(Cc4ccc(O)cc4)C(Cc4ccccc4)C(O)C(O)C3Cc3ccccc3)cc12 (centres unmarked) [p-OH]
[3]; [21]
  EC50: 32 nM
[4]; [22]
  EC50: 79 nM
[5]; [28]
  EC50: 19 nM
[6]; [29]
  EC50: 39 nM
[8]; [24]
  EC50: 55 nM
